Results from PMC6713091, “Exploring new structural features of the 4-[(3-methyl-4-aryl-2,3-dihydro-1,3-thiazol-2-ylidene)amino]benzenesulphonamide scaffold for the inhibition of human carbonic anhydrases” (Journal of Enzyme Inhibition and Medicinal Chemistry, 2019).

Experiments:
hCA I = hCA I (Homo sapiens, UniProt P00915); assay: Carbonic anhydrase inhibition assay, hCA I; format: biochemical
Description: (§1) The purification of cytosolic CA isoenzymes (CA I and CA II) was previously described with a simple one-step method by a Sepharose-4B-L tyrosine-sulphanilamide affinity chromatography.
(§2) The protein quantity in the column effluents was determined spectrophotometrically at 280 nm. Sodium dodecyl sulphate polyacrylamide gel electrophoresis (SDS-PAGE) was applied with a Bio-Rad Mini Gel system Mini-PROTEINVR system (Hercules, CA), Bio-Rad Laboratories, Inc., China after purification of both CA isoenzymes. Briefly, it was performed in acrylamide for the running (10%) and the stacking gel (3%) contained SDS (0.1%), respectively. Activities of CA isoenzymes were determined according to a method by Verporte et al.[57]. The increase in absorbance of the reaction medium was spectrophotometrically recorded at 348 nm. Also, the quantity of protein was determined at 595 nm according to the Bradford method. Bovine serum albumin was used as standard protein. The IC50 values were obtained from activity (%) versus compounds plots. For calculation of KI values, three different concentrations were used. The Lineweaver–Burk curves were drawn and calculations were realised.

hCA II = hCA II (Homo sapiens, UniProt P00918); assay: Carbonic anhydrase inhibition assay, hCA II; format: biochemical
Description: as §1, §2

hCA IX = hCA IX (Homo sapiens, UniProt Q16790); assay: Carbonic anhydrase inhibition assay, hCA IX; format: biochemical
Description: as §2

hCA XII = hCA XII (Homo sapiens, UniProt O43570); assay: Carbonic anhydrase inhibition assay, hCA XII; format: biochemical
Chain of hCA XII (O43570 25-354): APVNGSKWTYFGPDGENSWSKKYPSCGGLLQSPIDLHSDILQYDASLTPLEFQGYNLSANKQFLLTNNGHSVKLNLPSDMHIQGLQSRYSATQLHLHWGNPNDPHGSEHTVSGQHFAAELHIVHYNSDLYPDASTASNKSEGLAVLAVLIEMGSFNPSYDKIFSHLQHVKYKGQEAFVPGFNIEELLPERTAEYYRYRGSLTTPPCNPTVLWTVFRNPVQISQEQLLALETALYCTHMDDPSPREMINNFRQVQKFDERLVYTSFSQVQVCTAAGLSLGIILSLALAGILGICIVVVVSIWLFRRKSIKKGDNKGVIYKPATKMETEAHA
Description: as §2

Chain of hCA I (P00915 whole entry): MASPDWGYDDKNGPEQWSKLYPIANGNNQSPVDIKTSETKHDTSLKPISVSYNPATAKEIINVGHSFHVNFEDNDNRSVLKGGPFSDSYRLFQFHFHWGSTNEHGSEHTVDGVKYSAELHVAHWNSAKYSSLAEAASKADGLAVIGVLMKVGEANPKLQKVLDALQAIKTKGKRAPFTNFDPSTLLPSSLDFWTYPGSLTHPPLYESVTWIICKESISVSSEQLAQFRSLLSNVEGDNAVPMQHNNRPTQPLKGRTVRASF

Row | SMILES | melting point [°C] | other results
1 | Cn1c(-c2ccc(Br)cc2)cs/c1=N\c1ccc(S(N)(=O)=O)cc1 [EMAC8002a] | 256 to 259 | 
2 | Cn1c(-c2ccc(Cl)cc2)cs/c1=N\c1ccc(S(N)(=O)=O)cc1 [EMAC8002b] | 241 to 242 | 
3 | Cn1c(-c2ccc(F)cc2)cs/c1=N\c1ccc(S(N)(=O)=O)cc1 [EMAC8002c] | 230 to 233 | 
4 | Cn1c(-c2cccc([N+](=O)[O-])c2)cs/c1=N\c1ccc(S(N)(=O)=O)cc1 [EMAC8002d] | 235 to 236 | 
5 | Cn1c(-c2ccc(Cl)cc2Cl)cs/c1=N\c1ccc(S(N)(=O)=O)cc1 [EMAC8002e] | 256 to 257 | 
6 | Cn1c(-c2ccc(C#N)cc2)cs/c1=N\c1ccc(S(N)(=O)=O)cc1 [EMAC8002f] | 237 to 238 | 
7 | Cn1c(-c2ccc(F)cc2F)cs/c1=N\c1ccc(S(N)(=O)=O)cc1 [EMAC8002g] | 239 to 240 | 
8 | Cn1c(-c2ccc([N+](=O)[O-])cc2)cs/c1=N\c1ccc(S(N)(=O)=O)cc1 [EMAC8002h] | 244 to 245 | 
9 | Cn1c(-c2ccc(-c3ccccc3)cc2)csc1=Nc1ccc(S(N)(=O)=O)cc1 [EMAC8002i] | 254 to 255 | Ki (hCA I): 8910 nM; Ki (hCA II): 503 nM; Ki (hCA IX): 1390 nM; Ki (hCA XII): 9.5 nM; selective index hCA II/hCA XII (hCA XII; ratio of Ki hCA II to Ki hCA XII): higher than 52
10 | Cc1ccc(-c2cs/c(=N\c3ccc(S(N)(=O)=O)cc3)n2C)cc1 [EMAC8002j] | 252 to 254 | 
11 | COc1ccc(-c2cs/c(=N\c3ccc(S(N)(=O)=O)cc3)n2C)cc1 [EMAC8002k] | 243 to 244 | 
12 | Cn1c(-c2ccccc2)cs/c1=N\c1ccc(S(N)(=O)=O)cc1 [EMAC8002m] | 252 to 253 | 
